Measured values taken from ChEMBL document CHEMBL4477260, “Arylazolyl(azinyl)thioacetanilides. Part 20: Discovery of novel purinylthioacetanilides derivatives as potent HIV-1 NNRTIs via a structure-based bioisosterism approach” (Bioorg Med Chem, 2016).

Assays:
[1] = tested on: Human immunodeficiency virus 1; experiment: Antiviral activity against human HIV-1 3B infected in human MT4 cells assessed as protection from virus-induced cytopathic effect measured 5 days post infection by MTT assay; format: functional, organism-based; settings: Human immunodeficiency virus 1, 3B, MT4, 120 h
[2] = Cytotoxicity against mock-infected human MT4 cells assessed as reduction of cell viability after 5 days by MTT assay; format: cell-based
[3] = Selectivity index, ratio of CC50 for mock-infected human MT4 cells to EC50 for human HIV-1 3B infected in human MT4 cells; format: toxicity, cell-based; settings: MT4 cells (mock-infected for CC50, HIV-1-infected for EC50)
[4] = Selectivity index, ratio of CC50 for mock-infected human MT4 cells to EC50 for human HIV-1 3B harboring RES056 mutant infected in human MT4 cells; format: toxicity, cell-based; settings: MT4 cells (mock-infected for CC50, HIV-1-infected for EC50)
[5] = tested on: Human immunodeficiency virus 1; experiment: Antiviral activity against human HIV-1 3B harboring RES056 mutant infected in human MT4 cells assessed as protection from virus-induced cytopathic effect measured 5 days post infection by MTT assay; format: functional, organism-based; settings: Human immunodeficiency virus 1, 3B, MT4, 120 h
[6] = molecular target: Human immunodeficiency virus type 1 reverse transcriptase (Human immunodeficiency virus 1, UniProt Q72547); experiment: Inhibition of HIV-1 reverse transcriptase assessed as reduction in biotin-duTP incorporation using biotin-labeled dUTP and hybrid poly(A)-oligo (dT)15 template primer after 2 hrs by ELISA
[7] = tested on: Human immunodeficiency virus 1; experiment: Antiviral activity against human HIV-1 3B harboring reverse transcriptase L100I mutant infected in human MT4 cells assessed as protection from virus-induced cytopathic effect measured 5 days post infection by MTT assay; format: functional, organism-based; settings: Human immunodeficiency virus 1, 3B, MT4, 120 h
[8] = tested on: Human immunodeficiency virus 1; experiment: Antiviral activity against human HIV-1 3B harboring reverse transcriptase K103N mutant infected in human MT4 cells assessed as protection from virus-induced cytopathic effect measured 5 days post infection by MTT assay; format: functional, organism-based; settings: Human immunodeficiency virus 1, 3B, MT4, 120 h
[9] = tested on: Human immunodeficiency virus 1; experiment: Antiviral activity against human HIV-1 3B harboring reverse transcriptase Y181C mutant infected in human MT4 cells assessed as protection from virus-induced cytopathic effect measured 5 days post infection by MTT assay; format: functional, organism-based; settings: Human immunodeficiency virus 1, 3B, MT4, 120 h
[10] = tested on: Human immunodeficiency virus 1; experiment: Antiviral activity against human HIV-1 3B harboring reverse transcriptase Y188L mutant infected in human MT4 cells assessed as protection from virus-induced cytopathic effect measured 5 days post infection by MTT assay; format: functional, organism-based; settings: Human immunodeficiency virus 1, 3B, MT4, 120 h
[11] = tested on: Human immunodeficiency virus 1; experiment: Antiviral activity against human HIV-1 3B harboring reverse transcriptase E138K mutant infected in human MT4 cells assessed as protection from virus-induced cytopathic effect measured 5 days post infection by MTT assay; format: functional, organism-based; settings: Human immunodeficiency virus 1, 3B, MT4, 120 h
[12] = tested on: Human immunodeficiency virus 1; experiment: Antiviral activity against human HIV-1 3B harboring reverse transcriptase F227L/V106A double mutant infected in human MT4 cells assessed as protection from virus-induced cytopathic effect measured 5 days post infection by MTT assay; format: functional, organism-based; settings: Human immunodeficiency virus 1, 3B, MT4, 120 h
[13] = Selectivity index, ratio of CC50 for mock-infected human MT4 cells to EC50 for human HIV-1 3B harboring L100I mutant infected in human MT4 cells; format: toxicity, cell-based; settings: MT4 cells (mock-infected for CC50, HIV-1-infected for EC50)
[14] = Selectivity index, ratio of CC50 for mock-infected human MT4 cells to EC50 for human HIV-1 3B harboring K103N mutant infected in human MT4 cells; format: toxicity, cell-based; settings: MT4 cells (mock-infected for CC50, HIV-1-infected for EC50)
[15] = Selectivity index, ratio of CC50 for mock-infected human MT4 cells to EC50 for human HIV-1 3B harboring Y181C mutant infected in human MT4 cells; format: toxicity, cell-based; settings: MT4 cells (mock-infected for CC50, HIV-1-infected for EC50)
[16] = Selectivity index, ratio of CC50 for mock-infected human MT4 cells to EC50 for human HIV-1 3B harboring Y188L mutant infected in human MT4 cells; format: toxicity, cell-based; settings: MT4 cells (mock-infected for CC50, HIV-1-infected for EC50)
[17] = Selectivity index, ratio of CC50 for mock-infected human MT4 cells to EC50 for human HIV-1 3B harboring E138K mutant infected in human MT4 cells; format: toxicity, cell-based; settings: MT4 cells (mock-infected for CC50, HIV-1-infected for EC50)
[18] = Selectivity index, ratio of CC50 for mock-infected human MT4 cells to EC50 for human HIV-1 3B harboring F227L/V106A double mutant infected in human MT4 cells; format: toxicity, cell-based; settings: MT4 cells (mock-infected for CC50, HIV-1-infected for EC50)

| SMILES | EC50 [1] [µM] | CC50 at 120 h [2] [µM] | selectivity ratio [3] | selectivity ratio [4] | EC50 [5] [µM] | other results |
| --- | --- | --- | --- | --- | --- | --- |
| CCOC(=O)c1ccc(NC(=O)CSc2nc3cnc(Cl)nc3n2-c2ccc(C3CC3)c3ccccc23)c(Br)c1 | > 150 | 150 | < 1 |  |  |  |
| O=C(CSc1nc2cnc(Cl)nc2n1-c1ccc(C2CC2)c2ccccc12)Nc1ccc(C(F)(F)F)cc1 | > 16.2 | 16.2 | < 1 | < 1 |  |  |
| CC(Sc1nc2cnc(Cl)nc2n1-c1ccc(C2CC2)c2ccccc12)C(=O)Nc1ccc(S(N)(=O)=O)cc1Br (stereo not drawn) | 2.75 | 15.9 | 6 | 1 | > 15.9 |  |
| COC(=O)c1ccc(NC(=O)CSc2nc3cnc(Cl)nc3n2-c2cccc3ccccc23)c(Br)c1 | 1.66 | 156 | 94 | < 1 | > 156 |  |
| CC(Sc1nc2cnc(Cl)nc2n1-c1cccc2ccccc12)C(=O)Nc1ccc(C(N)=O)cc1Cl (stereo not drawn) | 2.73 | 23.6 | 9 | < 1 | > 23.6 |  |
| CCOC(=O)c1ccc(NC(=O)CSc2nc3cnc(Cl)nc3n2-c2cccc3ccccc23)c(Br)c1 | 3.43 | 109 | 32 | < 1 | > 109 |  |
| NC(=O)c1ccc(NC(=O)CSc2nc3cnc(Cl)nc3n2-c2cccc3ccccc23)c(Br)c1 | 1.8 | 21.6 | 12 | < 1 | > 21.6 |  |
| NC(=O)c1ccc(NC(=O)CSc2nc3cnc(Cl)nc3n2-c2ccc(C3CC3)c3ccccc23)c(Br)c1 | > 11.2 | 11.2 | < 1 |  |  |  |
| CC(Sc1nc2cnc(Cl)nc2n1-c1cccc2ccccc12)C(=O)Nc1ccc(S(N)(=O)=O)cc1Br (stereo not drawn) | 0.78 | 19 | 24 | < 1 | > 19 | IC50 [6]: 6.42 µM |
| CC(Sc1nc2cnc(Cl)nc2n1-c1cccc2ccccc12)C(=O)Nc1ccc(C(N)=O)cc1Br (stereo not drawn) | 1.86 | 21.8 | 12 | < 1 | > 21.8 |  |
| O=C(CSc1nc2cnc(Cl)nc2n1-c1cccc2ccccc12)Nc1ccc(C(F)(F)F)cc1 | > 14.3 | 14.2 | < 1 |  |  |  |
| NC(=O)c1ccc(NC(=O)CSc2nc3cnc(Cl)nc3n2-c2cccc3ccccc23)c(Cl)c1 | 4.56 | 22.7 | 5 | < 1 | > 22.7 |  |
| CC(Sc1nc2cnc(Cl)nc2n1-c1ccc(C2CC2)c2ccccc12)C(=O)Nc1ccc(S(N)(=O)=O)cc1Cl (stereo not drawn) | 4.04 | 17.6 | 4 | ≤ 3 | ≥ 5.74 |  |
| NC(=O)c1ccc(NC(=O)CSc2nc3cnc(Cl)nc3n2-c2ccc(C3CC3)c3ccccc23)c(Cl)c1 | > 6.39 | 6.39 | < 1 |  |  |  |
| CC(Sc1nc2cnc(Cl)nc2n1-c1cccc2ccccc12)C(=O)Nc1ccc(S(N)(=O)=O)cc1Cl (stereo not drawn) | 1.07 | 21.5 | 20 | < 1 | > 21.5 |  |
| CC(Sc1nc2cnc(Cl)nc2n1-c1ccc(C2CC2)c2ccccc12)C(=O)Nc1ccc(C(N)=O)cc1Br (stereo not drawn) | 7.22 | 55.9 | 8 | 10 | 22.2 | EC50 [7]: 5.64 µM; EC50 [8]: ≥ 48.1 µM; EC50 [9]: > 55.8 µM; EC50 [10]: > 55.8 µM; EC50 [11]: ≥ 65.1 µM; EC50 [12]: > 55.8 µM; selectivity ratio [13]: 8; selectivity ratio [14]: ≤ 1; selectivity ratio [15]: < 1; selectivity ratio [16]: < 1; selectivity ratio [17]: ≤ 1; selectivity ratio [18]: < 1 |
| CC(Sc1nc2cnc(Cl)nc2n1-c1ccc(C2CC2)c2ccccc12)C(=O)Nc1ccc(C(N)=O)cc1Cl (stereo not drawn) | > 25.1 | 25.1 | < 1 |  |  |  |
| NC(=O)c1ccc(NC(=O)CSc2nc3cnc(Cl)nc3n2-c2cccc3ccccc23)cc1 | ≥ 28.8 | 156 | ≤ 5 | < 1 | > 156 |  |
| NS(=O)(=O)c1ccc(NC(=O)CSc2nc3cnc(Cl)nc3n2-c2ccc(C3CC3)c3ccccc23)cc1 | 18.7 | 113 | 6 | < 1 | > 113 |  |
| NS(=O)(=O)c1ccc(NC(=O)CSc2nc3cnc(Cl)nc3n2-c2cccc3ccccc23)cc1 | 4.46 | 104 | 23 | < 1 | > 104 |  |
| COC(=O)c1ccc(NC(=O)CSc2nc3cnc(Cl)nc3n2-c2ccc(C3CC3)c3ccccc23)c(Br)c1 | > 153 | 153 | < 1 |  |  |  |
| CC(C)Nc1cccnc1N1CCN(C(=O)c2cc3cc(NS(C)(=O)=O)ccc3[nH]2)CC1 [DELAVIRDINE] | 0.0383 | 36.8 |  |  |  | selectivity ratio [13]: 14; selectivity ratio [14]: 12; selectivity ratio [15]: 15; selectivity ratio [16]: 44; selectivity ratio [17]: 715; selectivity ratio [18]: 16 |
| O=C1Nc2ccc(Cl)cc2[C@@](C#CC2CC2)(C(F)(F)F)O1 [EFAVIRENZ] |  | ≥ 6.34 |  |  |  |  |
| Cc1cc(C#N)cc(C)c1Oc1nc(Nc2ccc(C#N)cc2)nc(N)c1Br [ETRAVIRINE] | 0.00335 | 2.46 |  |  |  | EC50 [9]: 0.015 µM |
| Cc1ccnc2c1NC(=O)c1cccnc1N2C1CC1 [NEVIRAPINE] |  | ≥ 15 |  |  |  |  |
